Experiment [1] deals with 5-hydroxytryptamine receptor 1D (Homo sapiens) (UniProt P28221). Description: Inhibition of 5-HT1D receptor (unknown origin) at 10 uM by PDSP assay relative to control.
Experiment [2] deals with T1, 5-hydroxytryptamine receptor 1A (Homo sapiens) (UniProt P08908).
T1 sequence (whole entry): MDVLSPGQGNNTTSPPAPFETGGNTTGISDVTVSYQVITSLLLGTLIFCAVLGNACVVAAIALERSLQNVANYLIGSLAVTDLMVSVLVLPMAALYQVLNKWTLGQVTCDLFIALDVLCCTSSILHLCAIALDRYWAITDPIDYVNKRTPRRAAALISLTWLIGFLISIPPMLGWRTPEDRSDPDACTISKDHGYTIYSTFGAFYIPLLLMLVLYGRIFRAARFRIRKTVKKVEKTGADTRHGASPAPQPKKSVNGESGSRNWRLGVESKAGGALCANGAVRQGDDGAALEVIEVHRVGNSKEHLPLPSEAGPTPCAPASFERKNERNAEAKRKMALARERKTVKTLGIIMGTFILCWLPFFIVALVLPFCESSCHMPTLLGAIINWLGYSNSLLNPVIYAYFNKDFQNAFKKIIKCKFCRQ
Description: Inhibition of 5-HT1A receptor (unknown origin) at 10 uM by PDSP assay relative to control.

The target in the next experiment is Histamine H2 receptor (Homo sapiens, UniProt P25021). Description: Inhibition of histamine H2 receptor (unknown origin) at 10 uM by PDSP assay relative to control.
Sequence of Histamine H2 receptor (P25021 whole entry): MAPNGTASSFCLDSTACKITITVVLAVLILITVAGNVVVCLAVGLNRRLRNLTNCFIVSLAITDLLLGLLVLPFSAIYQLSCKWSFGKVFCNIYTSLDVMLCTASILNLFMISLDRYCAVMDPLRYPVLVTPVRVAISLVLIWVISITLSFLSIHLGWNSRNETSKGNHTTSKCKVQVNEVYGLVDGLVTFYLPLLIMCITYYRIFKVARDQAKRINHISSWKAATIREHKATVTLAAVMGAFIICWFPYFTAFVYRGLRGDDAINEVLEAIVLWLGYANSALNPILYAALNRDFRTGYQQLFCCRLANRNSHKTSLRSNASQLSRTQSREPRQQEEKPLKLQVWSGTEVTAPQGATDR
Experiment [3] addresses GABA-A receptor; agonist GABA site (Homo sapiens) (UniProt P14867+P47870+P28472+P48169+P34903+P18505+P47869+P31644+Q16445). Description: Inhibition of GABAA receptor (unknown origin) at 10 uM by PDSP assay relative to control. It counts as protein-complex assay.
For the next experiment, the species on record is Rattus norvegicus. Description: Inhibition of rat brain BZP receptor at 10 uM by PDSP assay relative to control.
The target in experiment [4] is Beta-2 adrenergic receptor (Homo sapiens) (UniProt P07550). Description: Inhibition of adrenergic beta2 receptor (unknown origin) at 10 uM by PDSP assay relative to control.
Sequence of Beta-2 adrenergic receptor (Homo sapiens) (P07550 whole entry, looked up): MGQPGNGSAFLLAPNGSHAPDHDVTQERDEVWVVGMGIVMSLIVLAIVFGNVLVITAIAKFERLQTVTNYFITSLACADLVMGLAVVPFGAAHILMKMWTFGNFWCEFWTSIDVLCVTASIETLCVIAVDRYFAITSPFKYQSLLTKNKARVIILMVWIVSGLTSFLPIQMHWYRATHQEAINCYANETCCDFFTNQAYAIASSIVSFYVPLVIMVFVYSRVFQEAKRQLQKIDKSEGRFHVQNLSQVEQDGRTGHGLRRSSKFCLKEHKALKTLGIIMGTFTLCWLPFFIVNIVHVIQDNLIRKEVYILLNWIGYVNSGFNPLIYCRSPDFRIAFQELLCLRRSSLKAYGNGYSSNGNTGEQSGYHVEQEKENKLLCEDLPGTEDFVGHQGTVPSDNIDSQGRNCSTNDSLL
Experiment [5] has as its target Beta-1 adrenergic receptor (Homo sapiens) (UniProt P08588). Description: Inhibition of adrenergic beta1 receptor (unknown origin) at 10 uM by PDSP assay relative to control.
Experiment [6] concerns the target T2, Alpha-1D adrenergic receptor (Homo sapiens) (UniProt P25100).
T2 sequence (whole entry): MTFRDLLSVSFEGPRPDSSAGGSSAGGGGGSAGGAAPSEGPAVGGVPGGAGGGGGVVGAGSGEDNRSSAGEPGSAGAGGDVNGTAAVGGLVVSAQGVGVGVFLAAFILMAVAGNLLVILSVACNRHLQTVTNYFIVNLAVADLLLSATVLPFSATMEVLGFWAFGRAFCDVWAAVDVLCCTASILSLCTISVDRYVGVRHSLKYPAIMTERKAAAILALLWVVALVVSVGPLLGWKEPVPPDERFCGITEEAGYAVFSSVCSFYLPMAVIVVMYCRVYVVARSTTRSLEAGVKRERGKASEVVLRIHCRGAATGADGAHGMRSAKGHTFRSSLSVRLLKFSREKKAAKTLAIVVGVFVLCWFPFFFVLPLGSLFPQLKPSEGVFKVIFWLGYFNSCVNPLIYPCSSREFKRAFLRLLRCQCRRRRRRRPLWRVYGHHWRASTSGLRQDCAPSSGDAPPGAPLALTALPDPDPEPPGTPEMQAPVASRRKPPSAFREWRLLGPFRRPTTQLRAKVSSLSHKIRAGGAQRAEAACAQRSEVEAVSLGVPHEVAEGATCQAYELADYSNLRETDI
Description: Inhibition of adrenergic alpha1D receptor (unknown origin) at 10 uM by PDSP assay relative to control.

Another experiment has as its system PC-12. Description: Selectivity ratio of Ki for sigma-1 receptor in rat brain homogenates to Ki for sigma-2 receptor in rat PC12 cells. The class given is cell-based.
Experiment [7] can be described thus: Displacement of [3H]-DTG from sigma-2 receptor in rat PC12 cells. The class given is cell-based. To be noted: pc-12. (Displacement assays read how much labelled ligand stays bound in the presence of the test substance.)
The next experiment concerns the target Mu-type opioid receptor (Homo sapiens, UniProt P35372). Description: Inhibition of mu opioid receptor (unknown origin) at 10 uM by PDSP assay relative to control.
Experiment [8] concerns the target Delta-type opioid receptor (Homo sapiens, UniProt P41143). Description: Inhibition of delta opioid receptor (unknown origin) at 10 uM by PDSP assay relative to control.
The target in experiment [9] is Kappa-type opioid receptor (Homo sapiens, UniProt P41145). Description: Inhibition of kappa opioid receptor (unknown origin) at 10 uM by PDSP assay relative to control.
Sequence of Kappa-type opioid receptor (P41145 whole entry): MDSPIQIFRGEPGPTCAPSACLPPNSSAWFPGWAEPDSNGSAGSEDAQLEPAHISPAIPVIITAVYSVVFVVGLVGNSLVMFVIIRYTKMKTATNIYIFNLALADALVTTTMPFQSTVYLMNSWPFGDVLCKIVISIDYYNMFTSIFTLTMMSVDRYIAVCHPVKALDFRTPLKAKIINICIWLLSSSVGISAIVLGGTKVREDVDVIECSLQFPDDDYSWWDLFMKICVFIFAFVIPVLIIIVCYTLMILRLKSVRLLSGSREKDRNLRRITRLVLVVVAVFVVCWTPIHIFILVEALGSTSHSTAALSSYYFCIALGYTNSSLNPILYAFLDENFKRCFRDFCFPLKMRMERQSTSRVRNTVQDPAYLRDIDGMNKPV
Experiment [10] concerns the target T3, Muscarinic acetylcholine receptor M5 (Homo sapiens) (UniProt P08912).
T3 sequence (whole entry): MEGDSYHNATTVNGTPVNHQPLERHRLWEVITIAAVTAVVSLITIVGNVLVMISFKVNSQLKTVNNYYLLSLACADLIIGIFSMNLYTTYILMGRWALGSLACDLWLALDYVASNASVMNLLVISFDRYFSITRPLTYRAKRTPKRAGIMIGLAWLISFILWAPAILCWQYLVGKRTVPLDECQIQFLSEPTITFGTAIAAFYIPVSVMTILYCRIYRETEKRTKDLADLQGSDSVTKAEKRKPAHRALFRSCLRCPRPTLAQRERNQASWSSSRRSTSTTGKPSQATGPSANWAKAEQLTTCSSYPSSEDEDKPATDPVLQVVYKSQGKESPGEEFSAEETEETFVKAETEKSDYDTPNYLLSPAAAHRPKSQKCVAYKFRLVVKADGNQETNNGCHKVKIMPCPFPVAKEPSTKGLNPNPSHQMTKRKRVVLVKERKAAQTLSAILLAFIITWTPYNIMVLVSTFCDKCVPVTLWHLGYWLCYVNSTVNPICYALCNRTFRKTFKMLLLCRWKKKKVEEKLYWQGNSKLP
Description: Inhibition of muscarinic M5 receptor (unknown origin) at 10 uM by PDSP assay relative to control.

Each structure is given as a SMILES string. A value given as a limit tells only on which side of the number the result lay.

Sequence of Delta-type opioid receptor (P41143 whole entry): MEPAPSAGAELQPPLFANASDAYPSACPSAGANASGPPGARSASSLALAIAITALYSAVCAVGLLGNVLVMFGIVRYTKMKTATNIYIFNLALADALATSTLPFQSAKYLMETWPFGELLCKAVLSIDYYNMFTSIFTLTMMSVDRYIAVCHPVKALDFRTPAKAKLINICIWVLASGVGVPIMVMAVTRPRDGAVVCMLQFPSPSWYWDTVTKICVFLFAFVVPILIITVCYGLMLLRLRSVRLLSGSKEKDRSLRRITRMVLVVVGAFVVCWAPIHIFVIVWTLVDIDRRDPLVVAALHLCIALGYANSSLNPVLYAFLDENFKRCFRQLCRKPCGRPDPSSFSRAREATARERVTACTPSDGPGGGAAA
Sequence of 5-hydroxytryptamine receptor 1D (Homo sapiens) (P28221 whole entry): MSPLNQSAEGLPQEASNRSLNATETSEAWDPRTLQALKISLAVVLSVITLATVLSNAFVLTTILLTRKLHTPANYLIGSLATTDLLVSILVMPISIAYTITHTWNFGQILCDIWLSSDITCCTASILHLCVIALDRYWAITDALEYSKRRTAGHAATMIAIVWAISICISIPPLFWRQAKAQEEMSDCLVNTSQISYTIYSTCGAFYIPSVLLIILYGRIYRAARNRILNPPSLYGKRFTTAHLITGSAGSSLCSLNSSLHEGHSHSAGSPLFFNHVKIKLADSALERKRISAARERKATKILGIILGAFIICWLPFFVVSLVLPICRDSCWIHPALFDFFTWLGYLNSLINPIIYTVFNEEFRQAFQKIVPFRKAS
Sequence of Mu-type opioid receptor (P35372 whole entry): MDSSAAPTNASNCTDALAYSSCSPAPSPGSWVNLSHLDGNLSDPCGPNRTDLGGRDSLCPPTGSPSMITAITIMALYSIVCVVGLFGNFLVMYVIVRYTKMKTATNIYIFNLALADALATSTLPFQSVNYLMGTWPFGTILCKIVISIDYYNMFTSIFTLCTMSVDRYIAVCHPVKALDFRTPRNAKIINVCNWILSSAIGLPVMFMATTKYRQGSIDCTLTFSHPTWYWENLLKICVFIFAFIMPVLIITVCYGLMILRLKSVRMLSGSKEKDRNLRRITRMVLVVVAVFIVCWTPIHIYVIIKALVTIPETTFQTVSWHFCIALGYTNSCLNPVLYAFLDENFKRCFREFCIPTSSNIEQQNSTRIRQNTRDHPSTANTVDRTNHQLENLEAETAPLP
Sequence of Beta-1 adrenergic receptor (Homo sapiens) (P08588 whole entry, looked up): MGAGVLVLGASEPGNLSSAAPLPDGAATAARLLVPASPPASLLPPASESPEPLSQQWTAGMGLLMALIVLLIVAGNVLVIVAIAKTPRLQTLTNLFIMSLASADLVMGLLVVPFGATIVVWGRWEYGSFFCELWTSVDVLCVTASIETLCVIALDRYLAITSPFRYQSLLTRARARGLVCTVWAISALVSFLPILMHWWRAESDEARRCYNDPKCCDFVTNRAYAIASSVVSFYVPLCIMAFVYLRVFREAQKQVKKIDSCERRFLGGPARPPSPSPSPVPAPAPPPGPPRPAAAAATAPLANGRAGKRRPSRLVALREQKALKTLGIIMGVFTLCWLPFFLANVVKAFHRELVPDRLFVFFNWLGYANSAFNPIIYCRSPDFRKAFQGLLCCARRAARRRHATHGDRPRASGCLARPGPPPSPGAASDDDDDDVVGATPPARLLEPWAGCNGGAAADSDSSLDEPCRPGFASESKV

Regarding `COc1cc(CN(C)[C@H]2C3C4CC5C6C4CC3C6C52)cc(OC)c1OC` (some centres undefined), the inhibition (in [1]; in experiment [2]; against Histamine H2 receptor; in experiment [3]; in the experiment listed under Rattus norvegicus; in [4]) was less than 50% each time. Besides, the inhibition (in [5]; in [6]; against Mu-type opioid receptor; in [8]; in experiment [9]; in experiment [10]) was less than 50% in each case. The Ratio Ki in the experiment on PC-12 was found to be 1.7. Further, in experiment [7], the inhibition constant (Ki) stood at 714 nM.

Take `CN(CC1CCCCC1)[C@H]1C2C3CC4C5C3CC2C5C41` (some centres undefined): the inhibition (in experiment [1]; in experiment [2]; against Histamine H2 receptor; in [3]; in the experiment listed under Rattus norvegicus; in experiment [4]) was less than 50% in each case. Moreover, the inhibition (in experiment [5]; in experiment [6]; on Mu-type opioid receptor; in experiment [8]; in experiment [9]; in experiment [10]) was less than 50% throughout. Further, the Ratio Ki in the experiment with PC-12 was determined as 1.1. For the same compound, the affinity in experiment [7] corresponds to a Ki of 14 nM.

Take `CN(Cc1cccnc1)[C@H]1C2C3CC4C2C(=O)C2C4C3C21` (some centres undefined): the inhibition (in experiment [1]; in experiment [2]; against Histamine H2 receptor; in experiment [3]; in the experiment filed under Rattus norvegicus; in experiment [4]) was less than 50% each time. Further, the inhibition (in experiment [5]; in [6]; on Mu-type opioid receptor; in [8]; in experiment [9]; in [10]) was less than 50% throughout. For the same compound, the Ratio Ki in the experiment with PC-12 is 0.28. For the same compound, affinity in experiment [7] was put at a Ki of 2630 nM.

Take `COc1ccc(CN(C)[C@H]2C3C4CC5C3C(=O)C3C5C4C32)cc1OC` (some centres undefined): the inhibition (in experiment [1]; in experiment [2]; at Histamine H2 receptor; in experiment [3]; in the experiment filed under Rattus norvegicus; in experiment [4]) was less than 50% in each case. Also, the inhibition (in experiment [5]; in experiment [6]; against Mu-type opioid receptor; in experiment [8]; in experiment [9]; in experiment [10]) was less than 50% throughout. For the same compound, in the experiment with PC-12, the Ratio Ki came out at 2.2. In experiment [7], this compound returned a Ki of 471 nM.

Take `CN(CCc1ccccn1)[C@H]1C2C3CC4C2C(=O)C2C4C3C21` (some centres undefined): the inhibition (in experiment [1]; in experiment [2]; at Histamine H2 receptor; in experiment [3]; in the experiment filed under Rattus norvegicus; in experiment [4]) was less than 50% each time. For the same compound, the inhibition (in experiment [5]; in experiment [6]; against Mu-type opioid receptor; in experiment [8]; in experiment [9]; in experiment [10]) was less than 50% in each case. For the same compound, the Ratio Ki in the experiment with PC-12 was greater than 15.8. Besides, the Ki in experiment [7] was 633 nM.

Regarding `CN(CCCc1cccc(F)c1)[C@H]1C2C3CC4C5C3CC2C5C41` (some centres undefined), the inhibition (in experiment [1]; in experiment [2]; at Histamine H2 receptor; in experiment [3]; in the experiment filed under Rattus norvegicus; in experiment [4]) was less than 50% each time. Moreover, the inhibition (in experiment [5]; in experiment [6]; against Mu-type opioid receptor; in experiment [8]; in experiment [9]; in [10]) was less than 50% in each case. Also, the Ratio Ki with PC-12 is 39. In [7], this compound showed a Ki of 11 nM.

The inhibition is the change of the read-out against control, counted positive when it falls. A low value points to little suppression. A word on the Ki: it is a dissociation constant, usually derived from enzyme kinetics or from competition with a known ligand.

(Values after ChEMBL document CHEMBL2429832, “N-substituted 8-aminopentacyclo[5.4.0.0(2,6).0(3,10).0(5,9)]undecanes as σ receptor ligands with potential neuroprotective effects” (Bioorg Med Chem, 2013).)
